The text below walks through data of ChEMBL document CHEMBL5465560, “Selectivity Literature for EUbOPEN Chemogenomic Library” (2024).

pIC50: −log10 of the molar value. A value given as a limit tells only on which side of the number the result lay.

In experiment [1] the test system is Tyrosine-protein kinase ABL1 (Homo sapiens), P00519 [T315I]. The note with it: at 10 µM.
Experiment [2] deals with Ribosomal protein S6 kinase alpha-5 (Homo sapiens) (UniProt O75582). The note with it: at 10 µM.
Experiment [3] deals with T1, Epidermal growth factor receptor (Homo sapiens, UniProt P00533). Nature of the experiment: Selectivity interaction (Enyzmatic assay) EUB0000601a EGFR.
In experiment [4] the target is Serine/threonine-protein kinase MARK1 (Homo sapiens) (UniProt Q9P0L2). The note with it: at 10 µM.
The target of experiment [5] is Serine/threonine-protein kinase PAK 2 (Homo sapiens) (UniProt Q13177). The note with it: at 10 µM.
For experiment [6], the system named is Epidermal growth factor receptor (Homo sapiens), P00533 [G719S]. Nature of the experiment: (§1) Selectivity interaction (KinomeScan (DiscoverX)) EUB0001079a EGFR. The note with it: at 1 µM.
Experiment [7] relates to Epidermal growth factor receptor (Homo sapiens), P00533 [L858R]. Described as §1. Conditions: at 1 µM.
In experiment [8] the test system is Epidermal growth factor receptor (Homo sapiens), P00533 [G719C]. The experiment is described as §1. Conditions: at 1 µM.
The subject of experiment [9] is Epidermal growth factor receptor (Homo sapiens), P00533 [T790M]. Described as §1. The note with it: at 1 µM.
Experiment [10] relates to Epidermal growth factor receptor (Homo sapiens), P00533 [L861Q]. Described as §1. The note with it: at 1 µM.
For experiment [11], the system named is Epidermal growth factor receptor (Homo sapiens), P00533 [UNDEFINED MUTATION]. The description is as §1. The note with it: at 1 µM.
The subject of experiment [12] is Epidermal growth factor receptor (Homo sapiens), P00533 [L858R,T790M]. Described as §1. Conditions: at 1 µM.
In experiment [13] the target is T1, Epidermal growth factor receptor. The experiment is described as §1. Conditions: at 1 µM.
For experiment [14], the target named is Macrophage-stimulating protein receptor (Homo sapiens, UniProt Q04912). Nature of the experiment: Selectivity interaction (KinomeScan (DiscoverX)) EUB0000092b MST1R. The note with it: at 10 µM.
Experiment [15] addresses T2, Serine/threonine-protein kinase BRSK2 (Homo sapiens) (UniProt Q8IWQ3).
T2 sequence (whole entry): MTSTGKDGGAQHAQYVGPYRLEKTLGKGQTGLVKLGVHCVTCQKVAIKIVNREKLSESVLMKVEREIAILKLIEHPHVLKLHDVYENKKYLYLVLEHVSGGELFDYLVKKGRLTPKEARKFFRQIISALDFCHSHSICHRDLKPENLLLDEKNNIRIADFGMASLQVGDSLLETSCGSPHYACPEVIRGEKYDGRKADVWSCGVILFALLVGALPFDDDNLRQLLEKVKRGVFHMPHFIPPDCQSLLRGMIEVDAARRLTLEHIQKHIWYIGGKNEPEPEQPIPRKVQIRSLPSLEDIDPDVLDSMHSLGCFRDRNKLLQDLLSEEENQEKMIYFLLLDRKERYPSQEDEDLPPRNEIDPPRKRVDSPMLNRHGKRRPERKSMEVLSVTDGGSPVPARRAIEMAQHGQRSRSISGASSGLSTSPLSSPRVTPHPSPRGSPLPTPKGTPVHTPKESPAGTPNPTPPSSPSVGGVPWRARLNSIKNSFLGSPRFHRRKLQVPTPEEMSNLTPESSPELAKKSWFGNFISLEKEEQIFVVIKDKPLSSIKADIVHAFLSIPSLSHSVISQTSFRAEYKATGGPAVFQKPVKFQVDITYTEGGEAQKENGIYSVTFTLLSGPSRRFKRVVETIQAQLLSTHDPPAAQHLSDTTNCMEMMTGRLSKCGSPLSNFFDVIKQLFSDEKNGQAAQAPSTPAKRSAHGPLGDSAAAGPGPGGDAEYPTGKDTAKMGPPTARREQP
Nature of the experiment: Selectivity interaction (KinomeScan (DiscoverX)) EUB0000655a BRSK2. Conditions: at 10 µM.

In experiment [16] the target is T3, cGMP-dependent protein kinase 2 (Homo sapiens) (UniProt Q13237).
T3 sequence (whole entry): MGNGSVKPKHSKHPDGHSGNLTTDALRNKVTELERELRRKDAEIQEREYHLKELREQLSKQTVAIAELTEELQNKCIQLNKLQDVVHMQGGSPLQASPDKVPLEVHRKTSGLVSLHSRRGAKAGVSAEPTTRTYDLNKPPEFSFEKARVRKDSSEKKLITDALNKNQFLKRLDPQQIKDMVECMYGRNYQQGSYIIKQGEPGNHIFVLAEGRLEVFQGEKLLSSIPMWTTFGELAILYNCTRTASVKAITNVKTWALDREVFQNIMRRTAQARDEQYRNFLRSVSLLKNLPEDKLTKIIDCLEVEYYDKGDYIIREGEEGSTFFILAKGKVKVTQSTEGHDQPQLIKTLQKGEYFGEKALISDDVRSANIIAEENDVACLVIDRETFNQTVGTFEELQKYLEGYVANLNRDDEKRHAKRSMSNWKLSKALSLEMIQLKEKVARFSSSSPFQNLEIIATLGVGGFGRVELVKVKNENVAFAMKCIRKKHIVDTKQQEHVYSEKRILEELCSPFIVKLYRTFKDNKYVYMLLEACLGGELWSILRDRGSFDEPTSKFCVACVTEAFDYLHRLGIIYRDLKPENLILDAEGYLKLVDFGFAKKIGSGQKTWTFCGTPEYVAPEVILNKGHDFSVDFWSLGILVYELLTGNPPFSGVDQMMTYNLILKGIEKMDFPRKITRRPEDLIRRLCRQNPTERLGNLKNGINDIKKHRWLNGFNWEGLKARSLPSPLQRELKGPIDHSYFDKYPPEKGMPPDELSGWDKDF
In words: Selectivity interaction (KinomeScan (DiscoverX)) EUB0000655a PRKG2. The note with it: at 10 µM.

Experiment [17] deals with Tyrosine-protein kinase ABL1 (Homo sapiens), P00519 [F317L]. In words: Selectivity interaction (KinomeScan (DiscoverX)) EUB0000666a ABL1. The note with it: at 10 µM.
For experiment [18], the target named is Casein kinase II subunit alpha (Homo sapiens, UniProt P68400). In words: Selectivity interaction (KinomeScan (DiscoverX)) EUB0000666a CSNK2A1. Conditions: at 10 µM.
Experiment [19] has as its target Proto-oncogene tyrosine-protein kinase Src (Homo sapiens, UniProt P12931). Nature of the experiment: Selectivity interaction (KinomeScan (DiscoverX)) EUB0000666a SRC. Conditions: at 10 µM.
Experiment [20] concerns the target Protein kinase C beta type (Homo sapiens, UniProt P05771). In words: Selectivity interaction (SelectScreen profiling (Invitrogen)) EUB0000607a PRKCB. Conditions: at 2 µM.

As usually defined, the pIC50 is the negative decadic logarithm of the IC50, by convention in mol/L. Read a high pIC50 as a low IC50.

T1 sequence (P00533 whole entry): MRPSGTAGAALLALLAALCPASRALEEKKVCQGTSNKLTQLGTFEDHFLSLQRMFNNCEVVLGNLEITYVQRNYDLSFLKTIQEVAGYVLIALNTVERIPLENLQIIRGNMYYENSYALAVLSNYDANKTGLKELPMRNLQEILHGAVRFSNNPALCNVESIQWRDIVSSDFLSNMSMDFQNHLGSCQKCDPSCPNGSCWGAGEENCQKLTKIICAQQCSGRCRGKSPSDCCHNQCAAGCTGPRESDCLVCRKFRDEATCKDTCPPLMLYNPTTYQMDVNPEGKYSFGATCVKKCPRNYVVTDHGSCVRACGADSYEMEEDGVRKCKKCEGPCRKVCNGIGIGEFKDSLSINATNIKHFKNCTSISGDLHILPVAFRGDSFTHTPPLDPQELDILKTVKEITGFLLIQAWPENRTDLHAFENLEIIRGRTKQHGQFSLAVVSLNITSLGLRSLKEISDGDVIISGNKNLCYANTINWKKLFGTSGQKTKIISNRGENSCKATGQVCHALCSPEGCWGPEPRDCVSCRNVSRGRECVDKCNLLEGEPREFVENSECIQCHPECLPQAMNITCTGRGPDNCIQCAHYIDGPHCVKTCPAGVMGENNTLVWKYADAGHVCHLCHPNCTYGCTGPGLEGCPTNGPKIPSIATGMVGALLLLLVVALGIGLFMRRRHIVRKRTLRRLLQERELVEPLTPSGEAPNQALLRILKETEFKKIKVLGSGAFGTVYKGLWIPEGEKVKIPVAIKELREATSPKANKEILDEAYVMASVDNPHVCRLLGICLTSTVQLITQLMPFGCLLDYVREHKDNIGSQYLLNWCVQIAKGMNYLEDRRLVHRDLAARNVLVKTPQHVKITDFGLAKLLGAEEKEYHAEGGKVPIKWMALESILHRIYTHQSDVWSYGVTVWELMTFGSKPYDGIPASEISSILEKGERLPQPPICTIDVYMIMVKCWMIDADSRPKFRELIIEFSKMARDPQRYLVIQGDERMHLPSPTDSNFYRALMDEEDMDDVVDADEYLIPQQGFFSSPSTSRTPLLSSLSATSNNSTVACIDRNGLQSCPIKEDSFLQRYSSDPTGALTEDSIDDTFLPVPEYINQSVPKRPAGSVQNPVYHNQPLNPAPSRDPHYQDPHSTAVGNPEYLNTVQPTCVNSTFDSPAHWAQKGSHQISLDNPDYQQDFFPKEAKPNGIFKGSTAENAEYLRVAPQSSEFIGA
Epidermal growth factor receptor (Homo sapiens), P00533 [G719C], sequence (P00533 whole entry G719C): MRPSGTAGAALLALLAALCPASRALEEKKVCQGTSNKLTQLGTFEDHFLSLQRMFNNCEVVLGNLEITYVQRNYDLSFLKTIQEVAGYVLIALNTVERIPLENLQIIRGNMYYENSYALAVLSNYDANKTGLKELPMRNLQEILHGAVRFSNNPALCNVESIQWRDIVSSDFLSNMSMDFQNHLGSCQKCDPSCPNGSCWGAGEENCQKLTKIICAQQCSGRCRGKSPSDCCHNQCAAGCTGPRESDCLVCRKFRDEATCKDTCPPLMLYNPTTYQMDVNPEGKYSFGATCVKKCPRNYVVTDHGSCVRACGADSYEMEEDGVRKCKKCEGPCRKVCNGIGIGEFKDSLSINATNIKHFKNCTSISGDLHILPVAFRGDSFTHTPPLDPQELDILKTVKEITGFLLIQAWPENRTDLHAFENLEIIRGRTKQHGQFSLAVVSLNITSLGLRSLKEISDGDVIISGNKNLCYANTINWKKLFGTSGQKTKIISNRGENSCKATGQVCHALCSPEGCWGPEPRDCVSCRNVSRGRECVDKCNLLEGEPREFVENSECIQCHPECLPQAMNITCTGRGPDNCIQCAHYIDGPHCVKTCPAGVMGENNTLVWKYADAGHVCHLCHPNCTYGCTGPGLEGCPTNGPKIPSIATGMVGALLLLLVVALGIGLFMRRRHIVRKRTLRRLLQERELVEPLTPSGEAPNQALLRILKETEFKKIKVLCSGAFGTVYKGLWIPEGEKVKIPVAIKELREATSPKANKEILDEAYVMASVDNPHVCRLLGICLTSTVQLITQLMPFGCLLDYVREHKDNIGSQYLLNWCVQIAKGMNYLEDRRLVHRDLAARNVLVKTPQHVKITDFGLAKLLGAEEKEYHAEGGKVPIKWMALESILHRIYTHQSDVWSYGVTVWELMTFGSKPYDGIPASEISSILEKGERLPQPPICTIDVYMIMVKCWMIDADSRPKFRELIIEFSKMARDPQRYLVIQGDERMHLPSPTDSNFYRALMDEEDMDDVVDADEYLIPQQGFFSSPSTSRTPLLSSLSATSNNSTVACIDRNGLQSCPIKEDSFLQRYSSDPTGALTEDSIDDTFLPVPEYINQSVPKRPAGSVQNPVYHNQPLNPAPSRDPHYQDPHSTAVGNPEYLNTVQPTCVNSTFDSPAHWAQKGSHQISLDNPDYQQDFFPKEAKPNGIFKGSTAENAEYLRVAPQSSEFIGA
Epidermal growth factor receptor (Homo sapiens), P00533 [L858R], sequence (P00533 whole entry L858R): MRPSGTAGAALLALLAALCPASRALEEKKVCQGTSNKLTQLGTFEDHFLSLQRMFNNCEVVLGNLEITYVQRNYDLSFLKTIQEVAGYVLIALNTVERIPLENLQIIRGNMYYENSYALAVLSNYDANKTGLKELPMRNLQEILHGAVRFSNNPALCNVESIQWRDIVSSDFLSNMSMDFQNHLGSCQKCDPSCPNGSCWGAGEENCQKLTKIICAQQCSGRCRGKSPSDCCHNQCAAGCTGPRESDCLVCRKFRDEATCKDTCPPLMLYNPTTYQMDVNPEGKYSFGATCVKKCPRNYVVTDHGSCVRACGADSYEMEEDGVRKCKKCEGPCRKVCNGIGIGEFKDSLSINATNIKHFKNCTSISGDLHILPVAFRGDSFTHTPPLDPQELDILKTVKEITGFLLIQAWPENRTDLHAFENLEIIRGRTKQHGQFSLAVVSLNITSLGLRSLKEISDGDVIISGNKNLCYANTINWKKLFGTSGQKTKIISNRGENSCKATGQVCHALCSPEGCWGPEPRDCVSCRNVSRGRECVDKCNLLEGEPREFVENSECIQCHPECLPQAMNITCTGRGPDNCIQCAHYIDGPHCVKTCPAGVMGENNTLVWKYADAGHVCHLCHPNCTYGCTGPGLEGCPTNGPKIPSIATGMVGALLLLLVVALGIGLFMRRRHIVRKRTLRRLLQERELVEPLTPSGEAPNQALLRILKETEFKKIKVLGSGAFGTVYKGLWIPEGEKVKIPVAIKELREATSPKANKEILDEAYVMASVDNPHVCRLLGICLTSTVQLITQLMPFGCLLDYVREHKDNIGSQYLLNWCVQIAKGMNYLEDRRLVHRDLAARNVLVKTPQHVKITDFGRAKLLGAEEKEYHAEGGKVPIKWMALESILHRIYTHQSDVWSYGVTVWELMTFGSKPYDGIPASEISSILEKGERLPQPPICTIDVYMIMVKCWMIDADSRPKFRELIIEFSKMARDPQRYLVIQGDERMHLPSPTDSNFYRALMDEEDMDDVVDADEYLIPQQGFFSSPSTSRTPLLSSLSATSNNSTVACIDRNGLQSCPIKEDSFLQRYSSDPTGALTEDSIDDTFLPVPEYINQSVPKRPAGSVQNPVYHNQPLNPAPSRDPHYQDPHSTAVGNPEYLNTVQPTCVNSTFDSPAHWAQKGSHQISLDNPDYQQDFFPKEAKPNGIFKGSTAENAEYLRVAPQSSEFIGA
Ribosomal protein S6 kinase alpha-5 (Homo sapiens), sequence (O75582 whole entry, looked up): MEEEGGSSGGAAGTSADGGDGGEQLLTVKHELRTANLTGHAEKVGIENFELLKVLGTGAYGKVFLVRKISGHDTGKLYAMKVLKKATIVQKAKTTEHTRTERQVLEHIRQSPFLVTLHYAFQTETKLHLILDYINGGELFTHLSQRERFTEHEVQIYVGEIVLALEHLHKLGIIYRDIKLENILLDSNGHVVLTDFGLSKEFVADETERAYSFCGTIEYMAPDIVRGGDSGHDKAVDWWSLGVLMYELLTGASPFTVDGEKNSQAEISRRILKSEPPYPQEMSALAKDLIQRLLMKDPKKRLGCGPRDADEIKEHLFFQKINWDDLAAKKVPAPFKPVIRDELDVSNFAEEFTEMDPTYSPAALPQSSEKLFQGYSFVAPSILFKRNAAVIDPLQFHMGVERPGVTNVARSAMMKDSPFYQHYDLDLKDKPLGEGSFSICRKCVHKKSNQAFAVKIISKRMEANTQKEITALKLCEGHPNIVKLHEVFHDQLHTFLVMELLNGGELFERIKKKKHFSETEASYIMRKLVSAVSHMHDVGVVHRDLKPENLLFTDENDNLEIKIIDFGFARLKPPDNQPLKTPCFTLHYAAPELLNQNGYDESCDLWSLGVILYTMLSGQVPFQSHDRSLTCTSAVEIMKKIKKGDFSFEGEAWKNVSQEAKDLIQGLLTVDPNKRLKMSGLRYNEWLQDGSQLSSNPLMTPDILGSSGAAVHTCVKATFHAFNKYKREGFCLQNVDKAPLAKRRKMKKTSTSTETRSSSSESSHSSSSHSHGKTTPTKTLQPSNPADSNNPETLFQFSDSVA
Protein kinase C beta type, sequence (P05771 2-671 limits assumed): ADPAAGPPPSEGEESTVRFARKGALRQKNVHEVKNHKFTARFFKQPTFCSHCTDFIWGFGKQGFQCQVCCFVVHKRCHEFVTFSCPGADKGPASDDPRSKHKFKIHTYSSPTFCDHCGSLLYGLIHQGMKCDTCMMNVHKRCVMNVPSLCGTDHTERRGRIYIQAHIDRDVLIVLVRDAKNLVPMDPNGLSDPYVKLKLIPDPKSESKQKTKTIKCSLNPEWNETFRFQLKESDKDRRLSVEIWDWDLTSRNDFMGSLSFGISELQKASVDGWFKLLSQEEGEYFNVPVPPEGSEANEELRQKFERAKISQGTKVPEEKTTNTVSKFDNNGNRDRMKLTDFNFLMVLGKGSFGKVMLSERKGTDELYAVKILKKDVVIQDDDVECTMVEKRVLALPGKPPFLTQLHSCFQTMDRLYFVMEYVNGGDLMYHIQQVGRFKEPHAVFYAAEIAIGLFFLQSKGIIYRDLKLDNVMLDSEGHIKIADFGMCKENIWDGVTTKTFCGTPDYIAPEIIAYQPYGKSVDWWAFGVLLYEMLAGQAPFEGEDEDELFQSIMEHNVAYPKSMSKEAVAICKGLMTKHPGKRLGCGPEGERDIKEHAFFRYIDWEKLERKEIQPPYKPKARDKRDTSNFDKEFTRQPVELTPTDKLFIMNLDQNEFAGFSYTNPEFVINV

In the case of `Cc1cc([C@@H](C)Nc2ccccc2C(=O)O)c2nc(N3CCOCC3)cc(=O)n2c1` [AZD-6482], the % of control in [1] came to 100%; in experiment [2], 81%.
The compound `CCc1cc(Nc2nccc(-c3c(-c4ccc(OC)c(C(=O)Nc5c(F)cccc5F)c4)nc4ccccn34)n2)c(OC)cc1N1CCC(N2CCN(S(C)(=O)=O)CC2)CC1` showed a pIC50 in experiment [3] of less than 5.00.
On to `CCN(CC)CCCCNc1ncc2cc(-c3cc(OC)cc(OC)c3)c(NC(=O)NC(C)(C)C)nc2n1`, for which the % of control in experiment [4] and in [5] was 100% in each case.
Consider `Nc1cnc(N2CCc3cc(S(=O)(=O)Nc4c(F)cc(Cl)cc4F)cc(N4CCCC4=O)c32)nc1` [TP-020n], for which the % of control amounted to 75% in [6]; 85% in experiment [7]; 100% in experiment [8]; 88% in experiment [9]; 100% in [10]; 74% in experiment [11]. For the same compound, the % of control in experiment [12] worked out at 77%; in experiment [13] it was 82%.
In experiment [14], `CCC(=O)N1CCN(c2ccc(-n3c(=O)ccc4cnc5ccc(-c6cnc7ccccc7c6)cc5c43)cc2C(F)(F)F)CC1` displayed a % of control of 55%.
Consider `CN(C)CCOc1ccc(-c2nc(-c3ccncc3)c(-c3ccc4c(c3)CC/C4=N\O)[nH]2)cc1`, for which the values for the % of control in experiment [15] and in experiment [16] were 88% and 29%, respectively.
In the case of `O=C(NOC[C@H](O)CO)c1ccc(F)c(F)c1Nc1ccc(I)cc1F`, the % of control in experiment [17] was 86%; in [18], 77%; in experiment [19], 69%.
Turning to `CNC(=O)Nc1ccc(-c2nc(N3CC4CCC(C3)O4)c3cnn(C4CCC5(CC4)OCCO5)c3n2)cc1`, the % of inhibition in [20] was found to be 11%.
